pEC50: −log10 of the molar value.

The experiment deals with HEK293T cells carrying the ATF4 luciferase reporter. Briefly: ATF4-Luc assay, in vitro model of Vanishing Cell White Matter Disease (VWMD). It is filed as cell-based. The conditions noted are these: Homo sapiens, HEK-293T, 1 μg/mL tunicamycin, 7 hours, One Glo luminescence. Summed up:
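Stable HEK293T line with human ATF4 5′-UTR–firefly luciferase reporter treated with 1 μg/mL tunicamycin plus 200 nM compound for 7 h. Luminescence read; EC50 derived.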
A word on the pEC50: it is −log10 of the EC50, conventionally taken in molar units. Consider `O=C(COc1ccc(Cl)c(F)c1)NC12CCC(NC(=O)c3cc4nccnc4s3)(CC1)CC2O` (stereo not shown) [Compound 627, N-{4-[2-(4-chloro-3-fluorophenoxy)acetamido]-3-hydroxybicyclo[2.2.2]octan-1-yl}thieno[2,3-b]pyrazine-6-carboxamide], for which the negative-log EC50 (pEC50) is less than 5.70. For the compound `O=C(COc1ccc(Cl)c(F)c1)NC12CCC(NC(=O)c3ccno3)(CC1)CC2O` (stereo not shown) [Compound 628, N-{4-[2-(4-chloro-3-fluorophenoxy)acetamido]-3-hydroxybicyclo[2.2.2]octan-1-yl}-1,2-oxazole-5-carboxamide], the negative-log EC50 (pEC50) is 6.00 to 6.60. For the compound `CC(C)(C)c1nc(C(=O)NC23CCC(NC(=O)COc4ccc(Cl)c(F)c4)(CC2)C(O)C3)co1` (stereo not shown) [Compound 629, 2-tert-butyl-N-{4-[2-(4-chloro-3-fluorophenoxy)acetamido]-3-hydroxybicyclo[2.2.2]octan-1-yl}-1,3-oxazole-4-carboxamide], the negative logarithm of the EC50 (pEC50) was 6.00 to 6.60. In the case of `Cc1cc(C(=O)NC23CCC(NC(=O)COc4ccc(Cl)c(F)c4)(CC2)C(=O)C3)on1` [Compound 630, N-{4-[2-(4-chloro-3-fluorophenoxy)acetamido]-3-oxobicyclo[2.2.2]octan-1-yl}-3-methyl-1,2-oxazole-5-carboxamide], the pEC50 is 6.00 to 6.60. The value for `O=C(COc1ccc(Cl)c(F)c1)NC12CC(NC(=O)c3ccn4nccc4n3)(C1)C2` [Compound 631, N-{3-[2-(4-chloro-3-fluorophenoxy)acetamido]bicyclo[1.1.1]pentan-1-yl}pyrazolo[1,5-a]pyrimidine-5-carboxamide] was 6.60 to 7.30.

Turning to `O=C(COc1ccc(Cl)c(F)c1)NC12CCC(NC(=O)c3cc(C(F)F)no3)(CC1)CC2O` (stereo not shown) [Compound 632, N-{4-[2-(4-chloro-3-fluorophenoxy)acetamido]-3-hydroxybicyclo[2.2.2]octan-1-yl}-3-(difluoromethyl)-1,2-oxazole-5-carboxamide], the pEC50 was more than 7.30. The value for `Cn1cc(-c2cc(C(=O)NC34CCC(NC(=O)COc5ccc(Cl)c(F)c5)(CC3)C(O)C4)on2)cn1` (stereo not shown) [Compound 633, N-{4-[2-(4-chloro-3-fluorophenoxy)acetamido]-3-hydroxybicyclo[2.2.2]octan-1-yl}-3-(1-methyl-1H-pyrazol-4-yl)-1,2-oxazole-5-carboxamide] was 6.60 to 7.30. The value for `O=C(COc1ccc(Cl)c(F)c1)NC12CCC(NC(=O)c3cnon3)(CC1)CC2O` (stereo not shown) [Compound 634, N-{4-[2-(4-chloro-3-fluorophenoxy)acetamido]-3-hydroxybicyclo[2.2.2]octan-1-yl}-1,2,5-oxadiazole-3-carboxamide] was less than 5.70; that for `O=C(COc1ccc2c(c1)OC(F)(F)O2)NC12CCC(NC(=O)c3cccc(F)c3)(CC1)C[C@@H]2O` [Compound 635, N-[(3S)-4-{2-[(2,2-difluoro-2H-1,3-benzodioxol-5-yl)oxy]acetamido}-3-hydroxybicyclo[2.2.2]octan-1-yl]-3-fluorobenzamide] was 6.00 to 6.60.

For the compound `Cc1cc(C(=O)NC23CCC(NC(=O)COc4ccc5c(c4)OC(F)(F)O5)(CC2)[C@@H](O)C3)on1` [Compound 636, N-[(3S)-4-{2-[(2,2-difluoro-2H-1,3-benzodioxol-5-yl)oxy]acetamido}-3-hydroxybicyclo[2.2.2]octan-1-yl]-3-methyl-1,2-oxazole-5-carboxamide], the negative-log EC50 (pEC50) is 6.00 to 6.60. `Cc1nn(C)c(C(=O)NC23CCC(NC(=O)COc4ccc5c(c4)OC(F)(F)O5)(CC2)[C@@H](O)C3)c1F` [Compound 637, N-[(3S)-4-{2-[(2,2-difluoro-2H-1,3-benzodioxol-5-yl)oxy]acetamido}-3-hydroxybicyclo[2.2.2]octan-1-yl]-4-fluoro-1,3-dimethyl-1H-pyrazole-5-carboxamide]: the negative logarithm of the EC50 (pEC50) is 6.00 to 6.60.

For the compound `Cc1cnc(C(=O)NC23CCC(NC(=O)COc4ccc5c(c4)OC(F)(F)O5)(CC2)[C@@H](O)C3)cn1` [Compound 638, N-[(3S)-4-{2-[(2,2-difluoro-2H-1,3-benzodioxol-5-yl)oxy]acetamido}-3-hydroxybicyclo[2.2.2]octan-1-yl]-5-methylpyrazine-2-carboxamide], the pEC50 was 6.00 to 6.60. On to `Cc1cc2c(NC34CC(NC(=O)COc5ccc(F)cc5)(C3)C4)nccn2n1` [Compound 639, 2-(4-fluorophenoxy)-N-{3-[(2-methylpyrazolo[1,5-a]pyrazin-4-yl)amino]bicyclo[1.1.1]pentan-1-yl}acetamide], for which the pEC50 was 6.60 to 7.30.

As to `Cc1cc2c(NC34CC(NC(=O)COc5cccc(F)c5)(C3)C4)nccn2n1` [Compound 640, 2-(3-fluorophenoxy)-N-{3-[(2-methylpyrazolo[1,5-a]pyrazin-4-yl)amino]bicyclo[1.1.1]pentan-1-yl}acetamide], the pEC50 was 6.00 to 6.60. The value for `O=C(COc1ccc(Cl)c(F)c1)NC12CC(NC(=O)c3csc(C(F)(F)F)n3)(C1)C2` [Compound 641, N-{3-[2-(4-chloro-3-fluorophenoxy)acetamido]bicyclo[1.1.1]pentan-1-yl}-2-(trifluoromethyl)-1,3-thiazole-4-carboxamide] was more than 7.30; that for `CC(C)c1ccc(C(=O)NC23CC(NC(=O)COc4ccc(Cl)c(F)c4)(C2)C3)cn1` [Compound 642, N-{3-[2-(4-chloro-3-fluorophenoxy)acetamido]bicyclo[1.1.1]pentan-1-yl}-6-(propan-2-yl)pyridine-3-carboxamide] was 5.70 to 6.00.

Turning to `CC(C)c1ccc(C(=O)NC23CC(NC(=O)COc4ccc(Cl)c(Cl)c4)(C2)C3)cn1` [Compound 643, N-{3-[2-(3,4-dichlorophenoxy)acetamido]bicyclo[1.1.1]pentan-1-yl}-6-(propan-2-yl)pyridine-3-carboxamide], the pEC50 is 6.00 to 6.60. In the case of `Cc1cncc(C(=O)NC23CC(NC(=O)COc4ccc(Cl)c(F)c4)(C2)C3)c1` [Compound 644, N-{3-[2-(4-chloro-3-fluorophenoxy)acetamido]bicyclo[1.1.1]pentan-1-yl}-5-methylpyridine-3-carboxamide], the negative-log EC50 (pEC50) is 6.60 to 7.30. The value for `Cc1cncc(C(=O)NC23CC(NC(=O)COc4ccc(Cl)c(Cl)c4)(C2)C3)c1` [Compound 645, N-{3-[2-(3,4-dichlorophenoxy)acetamido]bicyclo[1.1.1]pentan-1-yl}-5-methylpyridine-3-carboxamide] was 6.60 to 7.30. The figure for `O=C(COc1ccc(Cl)c(Cl)c1)NC12CC(NC(=O)c3cnc(C(F)(F)F)s3)(C1)C2` [Compound 646, N-{3-[2-(3,4-dichlorophenoxy)acetamido]bicyclo[1.1.1]pentan-1-yl}-2-(trifluoromethyl)-1,3-thiazole-5-carboxamide] is 6.60 to 7.30; for `O=C(COc1ccc(Cl)c(F)c1)NC12CCC(NC(=O)c3cnc(C(F)(F)F)s3)(C1)C2` [Compound 647, N-{4-[2-(4-chloro-3-fluorophenoxy)acetamido]bicyclo[2.1.1]hexan-1-yl}-2-(trifluoromethyl)-1,3-thiazole-5-carboxamide] it is 6.00 to 6.60; for `Cn1c(C(=O)NC23CC(NC(=O)COc4ccc(Cl)c(F)c4)(C2)C3)cc2ccccc21` [Compound 648, N-{3-[2-(4-chloro-3-fluorophenoxy)acetamido]bicyclo[1.1.1]pentan-1-yl}-1-methyl-1H-indole-2-carboxamide] it is 6.60 to 7.30. For `O=C(COc1ccc(Cl)c(F)c1)NC12CC(Nc3cnc(C(F)F)cn3)(C1)C2` [Compound 649, 2-(4-chloro-3-fluorophenoxy)-N-(3-{[5-(difluoromethyl)pyrazin-2-yl]amino}bicyclo[1.1.1]pentan-1-yl)acetamide], the pEC50 was 5.70 to 6.00. The figure for `Cc1cncc(C(=O)NC23CC(NC(=O)COc4ccc(Cl)c(F)c4)(C2)C3)n1` [Compound 650, N-{3-[2-(4-chloro-3-fluorophenoxy)acetamido]bicyclo[1.1.1]pentan-1-yl}-6-methylpyrazine-2-carboxamide] is 6.60 to 7.30. Take `COc1cc(C(=O)NC23CC(NC(=O)COc4ccc(Cl)c(F)c4)(C2)C3)n(C)n1` [Compound 651, N-{3-[2-(4-chloro-3-fluorophenoxy)acetamido]bicyclo[1.1.1]pentan-1-yl}-3-methoxy-1-methyl-1H-pyrazole-5-carboxamide]: the pEC50 is 6.60 to 7.30. For `O=C(COc1ccc(Cl)c(F)c1)NC12CCC(NC(=O)c3cnc(C(F)(F)F)cn3)(CC1)C[C@@H]2O` [Compound 652, N-{(3S)-4-[2-(4-chloro-3-fluorophenoxy)acetamido]-3-hydroxybicyclo[2.2.2]octan-1-yl}-5-(trifluoromethyl)pyrazine-2-carboxamide], the pEC50 is more than 7.30.

With `O=C(COc1ccc(Cl)c(F)c1)NC12CCC(NC(=O)c3cnc(C4CC4)cn3)(CC1)C[C@@H]2O` [Compound 653, N-{(3S)-4-[2-(4-chloro-3-fluorophenoxy)acetamido]-3-hydroxybicyclo[2.2.2]octan-1-yl}-5-cyclopropylpyrazine-2-carboxamide], the negative logarithm of the EC50 (pEC50) was 6.00 to 6.60.

For `O=C(COc1ccc(Cl)c(F)c1)NC12CC(NC(=O)c3cc(C(F)F)no3)(C1)C2` [Compound 654, N-{3-[2-(4-chloro-3-fluorophenoxy)acetamido]bicyclo[1.1.1]pentan-1-yl}-3-(difluoromethyl)-1,2-oxazole-5-carboxamide], the pEC50 was 6.60 to 7.30. The value for `O=C(COc1ccc(Cl)c(F)c1)NC12CC(NC(=O)c3csc(C4CC4)n3)(C1)C2` [Compound 655, N-{3-[2-(4-chloro-3-fluorophenoxy)acetamido]bicyclo[1.1.1]pentan-1-yl}-2-cyclopropyl-1,3-thiazole-4-carboxamide] was 6.60 to 7.30; that for `O=C(COc1ccc(Cl)c(F)c1)NC12CCC(NC(=O)c3ccccc3C(=O)O)(CC1)CC2O` (stereo not shown) [Compound 656, 2-({4-[2-(4-chloro-3-fluorophenoxy)acetamido]-3-hydroxybicyclo[2.2.2]octan-1-yl}carbamoyl)benzoic acid] was less than 5.70; that for `Cc1nc(C(=O)NC23CCC(NC(=O)COc4ccc(Cl)c(F)c4)(CC2)C(O)C3)nn1C` (stereo not shown) [Compound 657, N-{4-[2-(4-chloro-3-fluorophenoxy)acetamido]-3-hydroxybicyclo[2.2.2]octan-1-yl}-1,5-dimethyl-1H-1,2,4-triazole-3-carboxamide] was less than 5.70.

The values above are taken from patent publication US10913727B2, “Modulators of the integrated stress pathway” (Calico Life Sciences LLC, priority 2016, dated 2021).
